The numbers were not newly measured in paper PMC9230797, “Integration of a Physiologically Based Pharmacokinetic and Pharmacodynamic Model for Tegoprazan and Its Metabolite: Application for Predicting Food Effect and Intragastric pH Alterations” (Pharmaceutics, 2022), which cites them from elsewhere.

Molecules are shown by their SMILES. Like-named read-outs stand apart in the source and are kept apart here.

For data set [1] the following is noted: cited from earlier work.
Details of data set [2]: method as in PMID 28378544. The conditions noted are these: cited from earlier work.
On the set-up of data set [3]: method as in PMID 19006606. Particulars: cited from earlier work.

As for `COc1ccc2[nH]c([S+]([O-])Cc3ncc(C)c(OC)c3C)nc2c1` (stereo not drawn) [omeprazole], the “PK parameters (Tmax, AUC, half-life, Cmax) after a high-fat meal” value (from here on “PK parameters … after a high-fat meal”) in data set [1] was “tended to fluctuate significantly”. The “mean AUC0–12 h” value in data set [2] (CYP2C19 EM, multiple administrations) is 1715 µg·h/L; in data set [2] (CYP2C19 EM, single administration) it was 713.5 µg·h/L; in data set [2] (CYP2C19 IM, multiple administrations), 2087 µg·h/L; in data set [2] (CYP2C19 IM, single administration) it was 972.5 µg·h/L; in data set [2] (CYP2C19 PM, multiple administrations), 3669 µg·h/L; in data set [2] (CYP2C19 PM, single administration), 3652 µg·h/L. Moreover, the “AUC0–12 h ratio PM vs EM” value in data set [2] (multiple administrations) is on record as 2.14 fold; in data set [2] (single administration) it was 5.12 fold. For the same molecule, the “AUC0–12 h ratio PM vs IM” value is 1.76 fold in data set [2] (multiple administrations) and 3.76 fold in data set [2] (single administration).
As to `COc1ccnc(C[S+]([O-])c2nc3ccc(OC(F)F)cc3[nH]2)c1OC` (stereo not drawn) [pantoprazole], the “PK parameters … after a high-fat meal” value in data set [1] was “tended to fluctuate significantly”.
As for `COc1ccc2[nH]c([S+]([O-])Cc3ncc(C)c(OC)c3C)nc2n1` (stereo not drawn) [tenatoprazole], the plasma half-life result in data set [3] is listed as “up to 9 h”.
As for `CNCc1cc(-c2ccccc2F)n(S(=O)(=O)c2cccnc2)c1` [vonoprazan], the “effect of food intake on PK parameters” value in data set [1] was “not significantly affected”.
For the molecule `COCCCOc1ccnc(C[S+]([O-])c2nc3ccccc3[nH]2)c1C` (stereo not drawn) [rabeprazole], the “PK parameters … after a high-fat meal” value in data set [1] was “tended to fluctuate significantly”.
